Reference: patent US5955426A, “Cyclic hexapeptide somatostatin analogues” (Diatide, Inc., priority 1997, dated 1999)
Blank lines part the entries; values can stand above or below the molecule they belong to. Square brackets hold non-standard residues; d marks the D form. Peptide text beside a SMILES is read from it. * marks the point of attachment. X11 = NCCCC[C@H](NC(=O)C*)C(=O)NCCCC[C@H](N)C(=O)NCC(=O)N[C@@H](CS)C(N)=O; X13 = CC(=O)NCSC[C@H](NC(=O)CNC(=O)[C@H](CSCNC(C)=O)NC(=O)C*)C(N)=O; X7 = NC(=O)[C@H](CS)NC(=O)CNC(=O)[C@@H](N)CCCCNC(=O)C*; X5 = O=C(CNC(=O)[C@H](CS)NC(=O)C*)N[C@@H](CS)C(=O)O; X6 = NC(=O)[C@H](CS)NC(=O)CNC(=O)[C@H](CS)NC(=O)C*; X12 = NC(=O)[C@H](CS)NC(=O)CNC(=O)CNC(=O)C*; NMeF = CN[C@@H](Cc1ccccc1)C(=O)O; hCys = N[C@@H](CCS)C(=O)O

Biological target: T1, somatostatin receptor (Rattus norvegicus, UniProt P30680)
T1 construct: endogenous in cells; host or cells: AR42J rat pancreatic tumor cell line (membrane preparation)
Experiment: Inhibition of binding of (125I-Tyr11)somatostatin-14 to AR42J rat pancreatic tumor cell membranes
Conditions: 0.5 nM (125I-Tyr11)somatostatin-14, 25 min at 30° C., read-out: K1 (inhibition constant)
Method: Inhibition of Binding of (^125 I-Tyr^11)somatostatin-14 to AR42J Rat Pancreatic Tumor Cell Membranes
The rat pancreatic tumor cell line AR42J which expresses the somatostatin receptor was cultured in Dulbecco's minimal essential media (DMEM) supplemented with 10% fetal bovine serum (FBS) and 8 mM glutamine in a humidified 5% CO2 atmosphere at 37° C. in T-flasks. Harvested cells were homogenized in cold 50 mM Tris-HCl buffer (pH 7.4) and the homogenate then centrifuged at 39,000 g for 10 min at 4° C. Pellets were washed once with buffer and then resuspended in an ice-cold solution of 10 mM Tris-HCl (pH 7.4). Equal aliquots of this cell membrane preparation were incubated with (^125 I-Tyr^11)somatostatin-14 (at a final concentration of 0.5 nM and 750,000 cpm/mL, at a specific activity of 2000 Ci/mmol, Amersham, Arlington Heights, Ill.) and peptide at a final concentration of from 10^-11 M to 10^-6 M in a solution of 50 mM HEPES (pH 7.4) containing 1% bovine serum albumin (BSA), 5 mM MgCl2, Trasylol (200,000 International Units), bacitracin (0.02 mg/mL) and phenylmethylsulfonylfluoride (0.02 mg/mL) for 25 min at 30° C. Using a filtration manifold, this mixture was filtered through a polyethyleneimine-washed GC/F filter (Whatman, Maidstone, England), and the residue remaining on the filter washed thrice with 5 mL cold HEPES buffer. The filter and a sample of the filter washings were then counted in a gamma counter. To assess non-specific binding, the assay was performed in the presence of unlabeled somatostatin-14 at 200 nM. Data analysis including Hill plots of the data provided inhibition constants (see Bylund & Yamamura, "Methods of receptor binding", in Methods in Neurotransmitter Receptor Analysis, Yamamura et al., eds., Raven Press: New York, 1990).

T1 sequence (P30680 whole entry): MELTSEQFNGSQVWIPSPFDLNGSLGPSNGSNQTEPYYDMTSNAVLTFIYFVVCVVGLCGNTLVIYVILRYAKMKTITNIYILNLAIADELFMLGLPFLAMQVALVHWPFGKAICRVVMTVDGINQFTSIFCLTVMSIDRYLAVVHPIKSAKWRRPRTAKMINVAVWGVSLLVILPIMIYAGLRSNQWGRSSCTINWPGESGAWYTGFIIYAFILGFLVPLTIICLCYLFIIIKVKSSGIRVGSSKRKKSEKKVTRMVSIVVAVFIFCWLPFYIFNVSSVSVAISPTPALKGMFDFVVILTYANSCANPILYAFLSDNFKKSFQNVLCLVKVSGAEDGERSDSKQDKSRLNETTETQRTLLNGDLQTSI

SMILES: CC(C)[C@@H]1NC(=O)[C@H](CCCCN)NC(=O)[C@@H](Cc2c[nH]c3ccccc23)NC(=O)[C@H](Cc2ccc(O)cc2)NC(=O)[C@H](Cc2ccccc2)N(C)C(=O)[C@H](CCSCC(=O)N[C@@H](CS)C(=O)NCC(=O)N[C@@H](CS)C(=O)O)NC1=O [cyclo.(N-CH3)FYWD KV.Hcy(CH2 CO.CGC)] (cyclo(KV[hCys](X5)[NMeF]Y[dW]))
Ki: 1.8 nM

SMILES: CC(C)[C@@H]1NC(=O)[C@H](CCCCN)NC(=O)[C@@H](Cc2c[nH]c3ccccc23)NC(=O)[C@H](Cc2ccc(O)cc2)NC(=O)[C@H](Cc2ccccc2)N(C)C(=O)[C@H](CCSCC(=O)NCC(=O)NCC(=O)N[C@@H](CS)C(N)=O)NC1=O [cyclo.(N-CH3)FYWD KV.Hcy(CH2 CO.GGC.amide)] (cyclo([NMeF]Y[dW]KV[hCys](X12)))
Ki: 2.4 nM

SMILES: CC(C)[C@@H]1NC(=O)[C@H](CCCCN)NC(=O)[C@@H](Cc2c[nH]c3ccccc23)NC(=O)[C@H](Cc2ccc(O)cc2)NC(=O)[C@H](Cc2ccccc2)N(C)C(=O)[C@H](CCSCC(=O)NCCCC[C@H](N)C(=O)NCC(=O)N[C@@H](CS)C(N)=O)NC1=O [cyclo.(N-CH3)FYWD KV.Hcy(CH2 CO.(ε-K)GC.amide)] (cyclo([NMeF]Y[dW]KV[hCys](X7)))
Ki: 2 nM

Molecules with a lower Ki, results first:

Ki: 1.5 nM
SMILES: CC(C)[C@@H]1NC(=O)[C@H](CCCCN)NC(=O)[C@@H](Cc2c[nH]c3ccccc23)NC(=O)[C@H](Cc2ccc(O)cc2)NC(=O)[C@H](Cc2ccccc2)N(C)C(=O)[C@H](CCSCC(=O)N[C@@H](CS)C(=O)NCC(=O)N[C@@H](CS)C(N)=O)NC1=O [cyclo.(N-CH3)FYWD KV.Hcy(CH2 CO.CGC.amide)] (cyclo([NMeF]Y[dW]KV[hCys](X6)))

Ki: 0.79 nM
SMILES: CC(=O)NCSC[C@H](NC(=O)CNC(=O)[C@H](CSCNC(C)=O)NC(=O)CSCC[C@@H]1NC(=O)[C@H](C(C)C)NC(=O)[C@H](CCCCN)NC(=O)[C@@H](Cc2c[nH]c3ccccc23)NC(=O)[C@H](Cc2ccc(O)cc2)NC(=O)[C@H](Cc2ccccc2)N(C)C1=O)C(N)=O [cyclo.(N-CH3)FYWD KV.Hcy(CH2 CO.CAcm GCAcm.amide)] (cyclo(KV[hCys](X13)[NMeF]Y[dW]))

Ki: 0.65 nM
SMILES: CC(C)[C@@H]1NC(=O)[C@H](CCCCN)NC(=O)[C@@H](Cc2c[nH]c3ccccc23)NC(=O)[C@H](Cc2ccc(O)cc2)NC(=O)[C@H](Cc2ccccc2)N(C)C(=O)[C@H](CCSCC(=O)N[C@@H](CCCCN)C(=O)NCCCC[C@H](N)C(=O)NCC(=O)N[C@@H](CS)C(N)=O)NC1=O [cyclo.(N-CH3)FYWD KV.Hcy(CH2 CO.K(ε-K)GC.amide)] (cyclo([NMeF]Y[dW]KV[hCys](X11)))
